Assay [1] concerns A-current in cultured primary cerebellar granule neurons. The assay is described as follows: Arachidonic acid effects on the A-current in cultured primary cerebellar granule neurons. It is filed as cell-based. The conditions noted are these: 10 μM arachidonic acid, TEA (10 mM) applied, mean±SEM. The procedure: The arachidonic acid effects on the A-current were also investigated in a neuronal system (cultured primary cerebellar granule neurons) where both Kv4 and KChIPs are present. TEA (10 mM) was applied to block a small sustained outward component. Inactivation time constants of the A current in the absence and presence of 10 μM arachidonic acid were 44±5 ms and 21±3 ms (mean±SEM), respectively. The corresponding peak amplitude was reduced from 2.0±0.6 nA to 1.2±0.4 nA.

In a further assay the target is T1, Kv1.1/Kvβ1 (Rattus norvegicus, UniProt P10499).
T1 construct: expressed in transfected cells; host or cells: Xenopus oocytes
The assay is described as follows: AA modulation of Kv1.1/Kvβ1 current in Xenopus oocytes. The assay is classed as cell-based. Particulars: Kv1.1/Kvβ1, 10 μM AA, listed as AA. Here is the method: Frogs underwent no more than two surgeries and surgeries were performed by well established techniques. Frogs were anesthetized with ice. Total cRNA (1-10 ng) was injected into stage IV Xenopus oocytes that were harvested the previous day. The Xenopus oocytes were incubated in ND96 containing (in mM) 96 NaCl, 2 KCl, 1.8 CaCl2, 1 MgCl2, 5 HEPES, pH 7.6, plus (Gentamycin 50 μg/ml) at 18° C. Xenopus oocytes were studied 3-7 days after injection. The two-electrode voltage-clamp recordings were performed in ND96 solution using a TURBO TEC 03 Clamp Amplifier (ALA Scientific Instruments, Westbury, N.Y.). Both electrodes were filled with 3 M KCl and had electrode resistances ranging from 0.2-1 MOhm. The current signals were filtered at 1000 Hz before transferred on a PC (Gateway, Calif.) using the PULSE software (HEKA, Germany).
In this example, the foregoing was tested by measuring two alpha/auxiliary complexes: Kv4.3/KChIP1 and Kv1.1/Kvβ1. (Kvβ1, which is one of the classic potassium channel beta subunits, dramatically changes Kv1.1 kinetics). Kv4.3/KChIP and Kv1.1/Kvβ1 were expressed respectively in Xenopus oocytes and their resulting currents were recorded in the presence or absence of […] AA. […] Kinetically, […] was much more sensitive to AA modulation than was Kv1.1/Kvβ1 (Table 4).

In a further assay the test system is Kv4.3. The assay is described as follows: Fatty acid modulation of Kv4.3 current (Kv4.3 alone) in Xenopus oocytes. The assay is classed as cell-based, rat. The procedure: Frogs underwent no more than two surgeries and surgeries were performed by well established techniques. Frogs were anesthetized with ice. Total cRNA (1-10 ng) was injected into stage IV Xenopus oocytes that were harvested the previous day. The Xenopus oocytes were incubated in ND96 containing (in mM) 96 NaCl, 2 KCl, 1.8 CaCl2, 1 MgCl2, 5 HEPES, pH 7.6, plus (Gentamycin 50 μg/ml) at 18° C. Xenopus oocytes were studied 3-7 days after injection. The two-electrode voltage-clamp recordings were performed in ND96 solution using a TURBO TEC 03 Clamp Amplifier (ALA Scientific Instruments, Westbury, N.Y.). Both electrodes were filled with 3 M KCl and had electrode resistances ranging from 0.2-1 MOhm. The current signals were filtered at 1000 Hz before transferred on a PC (Gateway, Calif.) using the PULSE software (HEKA, Germany). In this Example, the hypothesis that […] were the missing auxiliary subunits that accounted for the above kinetic discrepancy was investigated by expressing Kv4 alone or together with […] in both CHO cells and Xenopus oocytes, and measuring their inactivation time constants (using art known techniques as described in, for example, An et al. (2000) Nature 403:553-6; Keros, S. and […]. Neuroscience 17: 3476-87; and Villarroel, A. and […]. Neuroscience 16:2522-32). The effects of different concentrations of arachidonic acid on Kv4/KChIP current was studied in Xenopus oocytes. Because the physiological concentrations of arachidonic acid are often under 10 μM (Needleman, et al., 1986 Annu Rev Biochem 55:69-102; Anderson and Welsh, 1990, Proc Natl Acad Sci USA 87:7334-8; Meves, 1994, Prog Neurobiol 43:175-86), arachidonic acid was tested in the 1-10 μM range. […] Further, the slope of amplitude reduction as a function of increasing concentrations was very similar with or without the presence of […]. […] Villarroel and Schwarz, (1996) J.

T1 sequence (P10499 whole entry): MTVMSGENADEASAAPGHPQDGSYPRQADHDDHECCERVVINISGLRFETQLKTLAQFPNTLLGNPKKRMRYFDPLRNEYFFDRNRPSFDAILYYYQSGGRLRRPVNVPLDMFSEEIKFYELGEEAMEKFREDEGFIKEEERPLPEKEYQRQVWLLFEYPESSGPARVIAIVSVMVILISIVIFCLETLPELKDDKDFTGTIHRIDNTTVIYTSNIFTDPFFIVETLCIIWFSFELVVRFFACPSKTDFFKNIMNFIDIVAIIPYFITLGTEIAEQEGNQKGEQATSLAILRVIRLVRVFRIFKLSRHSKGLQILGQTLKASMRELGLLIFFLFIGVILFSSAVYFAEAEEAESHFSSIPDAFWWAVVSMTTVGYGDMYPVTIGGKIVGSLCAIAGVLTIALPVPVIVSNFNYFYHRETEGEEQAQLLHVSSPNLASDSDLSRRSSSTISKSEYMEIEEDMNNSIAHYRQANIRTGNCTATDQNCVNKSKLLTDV

Consider `CCCCC/C=C\C/C=C\C/C=C\C/C=C\CCCC(=O)O` [arachidonic acid], for which, in assay [1], the “Inactivation time constant of the A current” value was found to be 21 ± 3 ms and the “peak amplitude of the A current” value is 1.2±0.4 nA. For the same molecule, on Kv1.1/Kvβ1, the “Inactivation time constant (ms ± SEM)” value is 9 ± 1 ms and the “Peak amplitude (μA ± SEM)” value is given as 14±1 μA. For the same molecule, in the assay with Kv4.3 (Kv4.3 alone, 10 μM AA), the “Inactivation time constant (ms ± SEM)” value was 66 ± 6 ms and the “Peak amplitude (μA ± SEM)” value came out at 13 ± 1 μA. Besides, the “block of Kv4.3 peak amplitude” value in the assay with Kv4.3 (Kv4.3 alone, 10 μM fatty acid, vs no-fatty acid control) was “inhibited significantly”. In the assay with Kv4.3 (Kv4.3 alone, 1-10 μM arachidonic acid), the “block of Kv4.3 peak amplitude” value is recorded as “concentration-dependent block”. For the same molecule, the “effect on inactivation time constant” value with Kv4.3 (absence of KChIP1, 1-10 μM arachidonic acid) is reported as “unchanged at all arachidonic acid concentrations tested”.
